The values below come from patent US20240325371A1, “USE OF EZH2 INHIBITOR IN PREPARATION OF DRUG FOR TREATING T-CELL LYMPHOMA” (JIANGSU HENGRUI MEDICINE CO., LTD., priority 2021, published 2024).

This assay relates to relapsed or refractory PTCL. Put plainly: Efficacy study of compound shown in Formula (I) in peripheral T-cell lymphoma patients. In kind it is in vivo, human. The procedure:
ORR: Defined as the proportion of subjects with best efficacy of CR or PR from the start of the first dose to the occurrence of PD or the start of subsequent new anti-tumor treatment, whichever occurs first. • 1.1 Drugs: Compound (WO2017084494A) shown in Formula (1), strength: 50 mg/tablet, 200 mg/tablet. • 1.2 Methods of administration: 350 mg, twice a day, 28 days as a cycle. • 1.3 Inclusion criteria: Relapsed or refractory T lymphocytic lymphoma. A total of 24 patients with relapsed or refractory PTCL were enrolled in the 350 mg group, of whom 16 received chidamide, and all patients were analyzed for efficacy data based on indistinguishable prior treatment and prior chidamide treatment.

With `CCc1c(N(CC)C2CCOCC2)cc2oc(CN3CCCCC3)cc2c1C(=O)NCc1c(C)cc(C)[nH]c1=O` [Formula (I)], the ORR runs as follows: (350 mg group having used chidamide, ES, AITL (n = 8)) 62.5%; (350 mg group having used chidamide, ES, ALL (n = 14)) 64.3%; (350 mg group having used chidamide, ES, PTCL-NOS (n = 6)) 66.7%; (350 mg group having used chidamide, FAS, AITL (n = 10)) 50.0%; (350 mg group having used chidamide, FAS, ALL (n = 16)) 56.3%; (350 mg group having used chidamide, FAS, PTCL-NOS (n = 6)) 66.7%. Also, the ORR reads like this: (350 mg twice a day, ES, AITL (n = 11)) 72.7%; (350 mg twice a day, ES, ALL (n = 18)) 66.7%; (350 mg twice a day, ES, PTCL-NOS (n = 7)) 57.1%; (350 mg twice a day, FAS, AITL (n = 15)) 53.3%; (350 mg twice a day, FAS, ALL (n = 24)) 50%; (350 mg twice a day, FAS, PTCL-NOS (n = 9)) 44.4%.
